Experimental data as given in ChEMBL document CHEMBL5223189, “Discovery of Selective Aldehyde Dehydrogenase Inhibitors for the Treatment of Cancer” (ACS Med Chem Lett, 2023).

How the values were obtained:
[1] = biological target: T1, Aldehyde dehydrogenase 1A1 (Homo sapiens, UniProt P00352); assay: Inhibition of full length human ALDH1A1 using propionaldehyde as substrate preincubated for 30 mins followed by substrate addition and measured after 30 mins in presence of NAD by luminescence microplate reader analysis
T1 sequence (P00352 whole entry): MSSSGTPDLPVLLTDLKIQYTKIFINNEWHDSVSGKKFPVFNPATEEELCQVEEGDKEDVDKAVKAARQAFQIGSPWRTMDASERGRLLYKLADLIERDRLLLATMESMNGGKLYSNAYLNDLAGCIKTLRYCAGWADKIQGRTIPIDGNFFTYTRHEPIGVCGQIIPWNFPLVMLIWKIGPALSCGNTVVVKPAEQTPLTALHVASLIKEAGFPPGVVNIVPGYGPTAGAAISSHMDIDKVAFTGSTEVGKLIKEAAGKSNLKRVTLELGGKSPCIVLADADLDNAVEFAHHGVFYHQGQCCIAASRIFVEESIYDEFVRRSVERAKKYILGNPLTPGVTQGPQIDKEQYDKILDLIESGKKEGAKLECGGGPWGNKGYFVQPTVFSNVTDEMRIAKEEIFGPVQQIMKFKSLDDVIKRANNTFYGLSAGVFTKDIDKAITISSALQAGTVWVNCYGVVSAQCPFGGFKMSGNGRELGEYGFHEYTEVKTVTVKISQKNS

[2] = biological target: T2, Retinaldehyde dehydrogenase 3 (Homo sapiens, UniProt P47895); assay: Inhibition of full length human ALDH1A3 using propionaldehyde as substrate preincubated for 30 mins followed by substrate addition and measured after 30 mins in presence of NAD by luminescence microplate reader analysis
T2 sequence (P47895 whole entry): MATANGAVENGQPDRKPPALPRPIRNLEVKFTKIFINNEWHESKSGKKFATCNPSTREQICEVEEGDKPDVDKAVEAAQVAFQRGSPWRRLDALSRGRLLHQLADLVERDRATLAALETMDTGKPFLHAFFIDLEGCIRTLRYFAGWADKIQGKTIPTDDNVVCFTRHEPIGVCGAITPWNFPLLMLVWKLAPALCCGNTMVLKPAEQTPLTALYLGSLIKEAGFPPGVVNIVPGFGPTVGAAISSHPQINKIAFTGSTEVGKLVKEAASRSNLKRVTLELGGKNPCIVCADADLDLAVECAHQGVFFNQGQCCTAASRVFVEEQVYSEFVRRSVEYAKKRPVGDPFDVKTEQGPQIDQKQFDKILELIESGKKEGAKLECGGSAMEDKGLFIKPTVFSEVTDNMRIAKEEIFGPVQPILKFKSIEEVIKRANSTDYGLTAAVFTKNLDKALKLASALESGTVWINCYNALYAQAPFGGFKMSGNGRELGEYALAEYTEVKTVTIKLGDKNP

[3] = biological target: T2, Retinaldehyde dehydrogenase 3; assay: Inhibition of human ALDH1A3 in human WM266-4 cells incubated for 60 mins using BODIPY-aminoacetaldehyde as substrate in presence of ALDEFLUOR assay buffer by Hoechst 33342 staining based cell Insight fluorescent microscopic anlaysis
[4] = biological target: T3, Aldehyde dehydrogenase, mitochondrial (Homo sapiens, UniProt P05091); assay: Inhibition of full length human ALDH2 using propionaldehyde as substrate preincubated for 30 mins followed by substrate addition and measured after 30 mins in presence of NAD by luminescence microplate reader analysis
T3 sequence (P05091 whole entry): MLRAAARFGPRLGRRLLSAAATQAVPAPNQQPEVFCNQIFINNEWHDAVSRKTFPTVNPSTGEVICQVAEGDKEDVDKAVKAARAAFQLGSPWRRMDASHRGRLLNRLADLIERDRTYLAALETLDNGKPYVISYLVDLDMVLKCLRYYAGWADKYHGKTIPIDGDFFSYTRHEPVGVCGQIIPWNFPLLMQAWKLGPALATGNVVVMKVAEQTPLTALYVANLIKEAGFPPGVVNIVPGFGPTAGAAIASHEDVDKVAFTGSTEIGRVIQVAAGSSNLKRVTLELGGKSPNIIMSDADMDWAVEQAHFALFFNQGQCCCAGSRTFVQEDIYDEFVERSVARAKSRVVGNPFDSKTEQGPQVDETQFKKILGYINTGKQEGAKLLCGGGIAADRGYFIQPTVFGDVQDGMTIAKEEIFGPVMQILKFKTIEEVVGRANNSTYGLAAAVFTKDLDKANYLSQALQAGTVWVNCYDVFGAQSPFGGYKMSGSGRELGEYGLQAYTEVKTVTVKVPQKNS

[5] = biological target: T4, Retinal dehydrogenase 2 (Homo sapiens, UniProt O94788); assay: Inhibition of full length human ALDH1A2 using propionaldehyde as substrate preincubated for 30 mins followed by substrate addition and measured after 30 mins in presence of NAD by luminescence microplate reader analysis
T4 sequence (O94788 whole entry): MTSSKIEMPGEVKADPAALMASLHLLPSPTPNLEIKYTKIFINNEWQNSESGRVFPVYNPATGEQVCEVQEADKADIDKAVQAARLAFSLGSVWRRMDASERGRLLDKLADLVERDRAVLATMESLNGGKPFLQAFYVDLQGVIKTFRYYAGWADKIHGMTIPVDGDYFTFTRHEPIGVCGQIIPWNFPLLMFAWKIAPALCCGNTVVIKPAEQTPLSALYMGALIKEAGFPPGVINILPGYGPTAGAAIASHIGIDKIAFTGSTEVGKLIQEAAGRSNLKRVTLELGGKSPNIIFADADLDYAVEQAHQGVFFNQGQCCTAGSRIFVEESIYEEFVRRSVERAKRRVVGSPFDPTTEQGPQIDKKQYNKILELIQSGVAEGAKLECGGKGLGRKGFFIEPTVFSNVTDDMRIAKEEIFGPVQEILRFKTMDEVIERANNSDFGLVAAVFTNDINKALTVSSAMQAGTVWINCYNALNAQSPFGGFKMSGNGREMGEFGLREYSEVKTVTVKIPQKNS

Row | Compound | IC50 [1] | IC50 [2] | IC50 [3] | IC50 [4] | IC50 [5]
1 | O=C1CCc2cc(OCCN3CCC[C@@H]3c3cccc(F)c3)ccc2N1 | ≥ 100 µM | < 100 nM | < 100 nM | ≥ 100 µM | 100 nM
2 | CN(C)c1nc(-c2cccc(F)c2)c(C(=O)Nc2ccc3c(c2)CCC(=O)N3)s1 | ≥ 100 µM | < 100 nM | < 100 nM | ≥ 100 µM | 1000 nM
3 | O=C1CCc2cc(NC(=O)c3scnc3-c3cccc(F)c3)ccc2N1 | ≥ 100 µM | < 100 nM | < 100 nM | ≥ 100 µM | 1000 nM
4 | O=C1CCc2cc(NC(=O)c3sc(N4CC(O)C4)nc3-c3cccc(F)c3)ccc2N1 | ≥ 100 µM | < 100 nM | < 100 nM | ≥ 100 µM | ≥ 100000 nM
5 | O=C1CCc2cc(OCCN3CCCC3c3cccc(F)c3)ccc2N1 (stereo not given) | ≥ 100 µM | < 100 nM | < 100 nM | ≥ 100 µM | 100 nM
6 | O=C1CCc2cc(NC(=O)c3sc(N4CCOCC4)nc3-c3cccc(F)c3)ccc2N1 | ≥ 100 µM | < 100 nM | < 100 nM | ≥ 100 µM | ≥ 100000 nM
7 | O=C1CCc2cc(NC(=O)c3sc(N4CCNCC4)nc3-c3cccc(F)c3)ccc2N1 | ≥ 100 µM | < 100 nM | < 100 nM | ≥ 100 µM | 10000 nM
8 | O=C1CCc2cc(NC(=O)c3scnc3-c3ccccc3F)ccc2N1 | ≥ 100 µM | < 100 nM | < 100 nM | ≥ 100 µM | 1000 nM
